Laboratory results taken from publication PMC7985570 (Signal Transduction and Targeted Therapy, 2021).
Where two headings read alike, the source gives them in different places.

How the values were obtained:
[1] = tested on: S-G614 pseudovirus; assay: microbe, parasite or virus in culture; assay type: cell-based; settings: read-out: EC50 against S-G614 pseudovirus in all three cell lines
[2] = target: receptor-binding domain (RBD) in the S protein of SARS-CoV-2 (Severe acute respiratory syndrome coronavirus 2, UniProt P0DTC2)
[3] = tested on: S-G614 pseudovirus; assay: microbe, parasite or virus in culture; assay type: cell-based, SARS-CoV-2; settings: for EC50: Pseudovirus, 293T/ACE2, read-out: 293T-ACE2 Cells EC50 BAPTA-AM (0μM)
[4] = tested on: native SARS-CoV-2; assay type: cell-based
[5] = tested on: 293T-ACE2 cells
[6] = tested on: SARS-CoV-2 S-G614 pseudovirus; settings: for EC50: read-out: S-G614 Pseudovirus EC50
[7] = tested on: VSV-G pseudovirus; assay: microbe, parasite or virus in culture; assay type: cell-based; settings: read-out: VSV-G Pseudovirus EC50
[8] = tested on: SARS-CoV-2 S-G614 pseudovirus; assay: organism not typed; settings: 293T/ACE2, read-out: S-G614 Pseudovirus EC50
[9] = in vitro; settings: human, 293T-ACE2 CC50
[10] = tested on: SARS-CoV-2 S-mediated membrane fusion of 293T-ACE2 cells; assay type: cell-based
[11] = tested on: SARS-CoV-2; settings: cited from earlier work

Molecule | CC50 [5] [µM] | SI (cytotoxicity) [6] | EC50 [6] [µM] | EC50 [7] [µM] | EC50 [8] [µM] | EC50 ([7]; Pseudovirus) [µM] | CC50 [9] [µM] | SI (cytotoxicity) ([6]; human) | further results
CC1CCN(CC(O)COc2cccc(OCC(O)CN3CCC(C)CC3)c2)CC1 (stereo not shown) [SC171, 3,3'-(1,3-phenylenebis(oxy))bis(1-(4-methylpiperidin-1-yl)propan-2-ol)] | – | – | – | – | – | – | – | – | EC50 [1]: < 10 µM; interaction with RBD [2]: negligible; EC50 [3]: 3.83 µM; Virus-induced cytopathogenic effect and viral RNA levels [4]: partially inhibited; relative viral RNA levels [4]: 43.55%
CC(N)C12CC3CC(CC(C3)C1)C2.Cl (stereo not shown) [SC16, Rimantadine (hydrochloride)] | > 50 | >1.45 | 34.6 | – | – | – | – | – | –
COc1cc2c(cc1OC)[C@@H](Cc1ccc(O)c(Oc3cc4c(cc3OC)CCN(C)[C@@H]4Cc3ccc(O)cc3)c1)N(C)CC2 [SC186, Liensinine] | > 50 | >49.80 | 1 | > 50 | – | – | – | – | –
COc1ccc2cc1Oc1ccc(cc1)C[C@H]1c3cc(c(OC)cc3CCN1C)Oc1c(O)c(OC)cc3c1[C@H](C2)N(C)CC3 [SC180, Fangchinoline] | – | – | – | – | 0.94 | 4.39 | > 50 | >53.39 | –
COc1ccc2cc1Oc1ccc(cc1)C[C@H]1c3cc(c(OC)cc3CCN1C)Oc1c(OC)c(OC)cc3c1[C@H](C2)N(C)CC3 [SC182, Tetrandrine] | – | – | – | – | 0.9 | 27.9 | > 50 | >55.80 | EC50 [1]: < 10 µM; decrease of fusion rates [10]: approximately 90%
COc1ccc(C[C@@H]2c3cc(Oc4cc(C[C@@H]5c6cc(OC)c(OC)cc6CCN5C)ccc4O)c(OC)cc3CCN2C)cc1 [SC185, Neferine] | – | – | – | – | 0.95 | > 50 | > 50 | – | EC50 [1]: < 10 µM; interaction with RBD [2]: negligible; decrease of fusion rates [10]: approximately 90%; EC50 [3]: 0.946 µM; Virus-induced cytopathogenic effect and viral RNA levels [4]: partially inhibited; relative viral RNA levels [4]: 76.98%
CC(=O)OCOC(=O)CN(CC(=O)OCOC(C)=O)c1ccccc1OCCOc1ccccc1N(CC(=O)OCOC(C)=O)CC(=O)OCOC(C)=O [BAPTA-AM, reference compound] | – | – | – | – | – | – | – | – | SARS-CoV-2 pseudovirus infection on intracellular Ca2+ chelation [3]: significantly diminished
COc1ccc2cc1Oc1ccc(cc1)C[C@H]1c3c(cc4c(c3Oc3cc5c(cc3OC)CCN(C)[C@@H]5C2)OCO4)CCN1C [SC9, Cepharanthine] | – | – | – | – | – | – | – | – | EC50 [1]: < 10 µM; interaction with RBD [2]: negligible; decrease of fusion rates [10]: approximately 90%; EC50 [3]: 0.315 µM; Virus-induced cytopathogenic effect and viral RNA levels [4]: partially inhibited; relative viral RNA levels [4]: 0.08%
CCOC(=O)C1=C(COCCN)NC(C)=C(C(=O)OC)C1c1ccccc1Cl (stereo not shown) [amlodipine] | – | – | – | – | – | – | – | – | viral infection [11]: reduced viral infection
Cc1cccc2c3c(ccc12)C1=C(C(=O)C3=O)[C@@H](C)CO1 [SC24, Dihydrotanshinone I] | – | – | – | – | 15.7 | – | 33.5 | 0.90 | –
O=C1Nc2ccc(Cl)cc2[C@@](C#CC2CC2)(C(F)(F)F)O1 [SC102, Efavirenz] | – | – | – | – | 0.00038 | 0.000723 | > 50 | >130890 | –
Aloperine [SC96] | > 50 | >176.87 | 0.28 | 10.8 | – | – | – | – | –
COc1cc2c(cc1O)[C@@H](Cc1ccc(O)c(Oc3ccc(C[C@@H]4c5cc(OC)c(OC)cc5CCN4C)cc3)c1)N(C)CC2 [SC187, Daurisoline] | > 50 | >20.13 | 2.48 | > 50 | – | – | – | – | –
Cl.N=c1ccn2c(n1)O[C@H]1[C@H](O)[C@@H](CO)O[C@H]12 [SC33, Ancitabine (hydrochloride)] | > 50 | >4.94 | 10.1 | > 50 | – | – | – | – | –
Cc1nnc(C(=O)NC(C)(C)c2nc(C(=O)NCc3ccc(F)cc3)c([O-])c(=O)n2C)o1.[K+] [SC109, Raltegravir (potassium salt)] | > 50 | >247647 | 0.0002 | 0.0359 | – | – | – | – | –
COc1c2c(cc3c1-c1c(cc4c(c1OC)OCO4)C[C@H](C)[C@H](C)C3)OCO2 [SC8, Schisandrin C] | – | – | – | – | 14.6 | – | > 50 | >3.43 | –
Berbamine hydrochloride [SC183] | – | – | 1.28 | > 50 | – | – | – | >38.94 | CC50 ([5]; human): > 50 µM
CCOC(=O)[C@H]1O[C@@H]1C(=O)N[C@@H](CC(C)C)C(=O)NCCC(C)C [Aloxistatin, aloxistatin, reference compound] | – | – | – | – | 0.923 | > 50 | > 50 | >54.17 | –
COc1ccc2cc1Oc1ccc(cc1)C[C@H]1c3cc(c(OC)cc3CCN1C)Oc1c(OC)c(OC)c(OC)c3c1[C@H](C2)N(C)CC3 [SC161, Hernandezine] | – | – | – | – | – | – | – | – | EC50 [1]: < 10 µM; interaction with RBD [2]: negligible; decrease of fusion rates [10]: approximately 90%; EC50 [3]: 0.111 µM; Virus-induced cytopathogenic effect and viral RNA levels [4]: partially inhibited; relative viral RNA levels [4]: 70.27%
COc1ccc2cc1Oc1ccc(cc1)CC1c3cc(c(OC)cc3CCN1C)Oc1c(O)c(OC)cc3c1C(C2)N(C)CC3 (stereo not shown) [SC181, Isofangchinoline] | > 50 | >45.00 | 1.11 | 3.95 | – | – | – | – | –
COc1cc2c(cc1OC)[C@@H](Cc1ccc(Oc3cc(C[C@@H]4c5cc(OC)c(OC)cc5CCN4C)ccc3O)cc1)N(C)CC2 [SC184, Dauricine] | – | – | – | – | 1.43 | > 50 | > 50 | >34.99 | –
COc1ccc(C[C@@H]2c3cc(Oc4cc(C[C@@H]5c6cc(O)c(OC)cc6CCN5C)ccc4O)c(OC)cc3CCN2C)cc1 [SC188, Isoliensinine] | – | – | – | – | 1.29 | 7.02 | > 50 | >38.88 | –
